The target of data set [1] is T1, PBR protein harvested from MA-10 cells (Mus musculus, UniProt P50637).
T1 construct: PBR protein was harvested from MA-10 cells and stocked in PBS at 10 mg/mL; endogenous in cells; host or cells: MA-10 cells
Briefly: Competitive binding study against [3H]PK11195 on PBR protein. Conditions: amino group capped by acetyl group; [3H]PK11195 radioligand; 4° C., 90 minutes. The procedure: More specifically, conjugable form of DAA1106, with 3-9 carbon spacers, has been synthesized, characterized, and used in a competitive binding assay. The amino group was capped by acetyl group to reduce non-specific binding (Scheme 2).
PBR protein was harvested from MA-10 cells and stocked in PBS at 10 mg/mL. The stock solution was diluted to 30 μg/100 μL for the binding study. [^3H]PK11195 was used as radioligand and the specific activity of the stock solution was 73.6 Ci/mmole (˜11.8 μM). A diluted solution of 15 nM in PBS was prepared before use. For each of the molecules tested (NIRDAA, LissDAA and C3-9DAA1106 amide), eight concentrations of solutions from 3×10^−4M to 3×10^−11M in PBS buffer were prepared. 30 test tubes were used for the study of each molecule. 3 of them were used for total binding (100 μL 15 nM [^3H]PK11195+100 μL PBS buffer+100 μL 30 μg/100 μL PBR protein), 3 test tubes were for non-specific binding (100 μL 15 nM [^3H]PK11195+100 μL 15 μM PK11195+100 μL 30 μg/100 μL PBR protein) and the other 24 were triplicates for each doses of competitor ligand (100 μL, 15 nM [^3H]PK11195+100 μL competitor solution+100 μL 30 μg/100 μL PBR protein). All test tubes were vortexed and then incubated at 4° C. for 90 minutes. Reactions were stopped by filtration on FG/B filters using the Brandel binding apparatus through Whatman GF/B filters (Brandel, Gaithersburg, Md.). The filters (24 positions each) were preincubated in PBS/H2O containing 0.05% PEI for 20-30 minutes before filtration. The filters were then washed 5 times with PBS, put in scintillation vials, vortexed in scintillation fluid and counted. The […] and Ki (equilibrium dissociation constant) values were calculated using the PRISM program package

Data set [2] deals with PBR. Conditions: cited from earlier work.
Data set [3] deals with PBR. Conditions: cited from earlier work; for IC50: comparison values for parent ligand.
Data set [4] concerns human Jurkat T lymphocyte cells (low PBR expressing). Put plainly: Apoptosis study, CellTiter-Glo luminescent cell viability assay. The format is cell-based. As to the method:
(§1) Apoptosis Study Using Etoposide and EtoposideDAA 50,000 MDA-MB-231 human breast tumor (high PBR expressing) or human Jurkat T lymphocyte cells (low PBR expressing) cells/well were added to 96 well plates and incubated under standard tissue culture conditions (37° C., 5% CO2) for 24 hours. […] After three days, CellTiter-Glo luminescent cell viability assay (Promega) was added. The plates were incubated for an additional one hour and the […] was counted under Xenogen IVIS imaging system. Three wells were used for control which had cells treated with viability assay without drug. Blank […] not have cells or drug, but had viability assay. Medium samples had cells only, without drug or viability assay.

Data set [5] relates to MDA-MB-231 human breast tumor (high PBR expressing) cells. The data set is described as above. The format is cell-based. The conditions noted are these: MDA-MB-231, three days. The procedure:
as §1

The values below come from patent publication US20100324130A1, “DAA PERIPHERAL BENZODIAZEPINE RECEPTOR LIGAND FOR CANCER IMAGING AND TREATMENT” (priority 2006, published 2010).

One may read the IC50 as the concentration that inhibits the measured activity by half. Broadly, the Ki is the equilibrium dissociation constant of an inhibitor or competing ligand from its target.

As for `COc1ccc(NCCCNC(C)=O)c(CN(C(C)=O)c2cc(F)ccc2Oc2ccccc2)c1` [C3DAA1106], in data set [1], the IC50 was found to be 390 nM and the affinity, expressed as Ki, was 68 ± 23 nM.

On to `COc1ccc(NCCCCNC(C)=O)c(CN(C(C)=O)c2cc(F)ccc2Oc2ccccc2)c1` [C4DAA1106], for which, in data set [1], the IC50 was 800 nM and the Ki was 141 ± 36 nM.

In data set [1], `COc1ccc(NCCCCCNC(C)=O)c(CN(C(C)=O)c2cc(F)ccc2Oc2ccccc2)c1` [C5DAA1106] showed an IC50 of 840 nM and a Ki of 149 ± 49 nM.

In the case of `COc1ccc(NCCCCCCNC(C)=O)c(CN(C(C)=O)c2cc(F)ccc2Oc2ccccc2)c1` [C6DAA1106], in data set [1], the IC50 amounted to 350 ± 220 nM and the affinity, expressed as Ki, was 52 ± 30 nM.

In data set [1], `COc1ccc(NCCCCCCCNC(C)=O)c(CN(C(C)=O)c2cc(F)ccc2Oc2ccccc2)c1` [C7DAA1106] had an IC50 of 400 nM and a Ki of 71 ± 33 nM.

With `COc1ccc(NCCCCCCCCNC(C)=O)c(CN(C(C)=O)c2cc(F)ccc2Oc2ccccc2)c1` [C8DAA1106], in data set [1], the IC50 was found to be 240 nM and the Ki came to 43 ± 19 nM.

In data set [1], `COc1ccc(NCCCCCCCCCNC(C)=O)c(CN(C(C)=O)c2cc(F)ccc2Oc2ccccc2)c1` [C9DAA1106] showed an IC50 of 290 nM and a Ki of 51 ± 17 nM.

As for `COc1ccc(OC)c(CN(C(C)=O)c2cc(F)ccc2Oc2ccccc2)c1` [DAA1106], in data set [2], the “concentration to displace PBR complexed PK11195 and Ro5-4864” value was 10^−15-10^−12 M. Besides, the IC50 in data set [3] was 0.28 nM. In addition, the “binding affinity for PBR” value in data set [3] (fentomolar) is on record as 10^−15 M.

With `COc1ccc(OC)c(CN(C(C)=O)c2cc(F)ccc2Oc2ccccc2)c1` [[^11C]DAA1106], the IC50 in data set [3] was 0.91 nM.

For `COc1cc([C@@H]2c3cc4c(cc3[C@@H](O[C@@H]3O[C@@H]5CO[C@@H](C)O[C@H]5[C@H](O)[C@H]3O)[C@H]3COC(=O)[C@H]23)OCO4)cc(OC)c1O` [etoposide, reference compound], in data set [4] (Jurkat, three days), the “concentration at which cells began to respond” value is 10^−6 M and the “concentration at which cells effectively respond” value is listed as 10^−5 M. Moreover, the “concentration at which cells were beginning to respond” value in data set [5] is on record as 10^−4 M.

For `COc1ccc(NCCCCCCNC(=O)CCOc2c(OC)cc([C@@H]3c4cc5c(cc4[C@@H](OC4OC6COC(C)OC6C(O)C4O)[C@H]4COC(=O)[C@H]34)OCO5)cc2OC)c(CN(C(C)=O)c2cc(F)ccc2Oc2ccccc2)c1` (stereo partly drawn) [etoposide-C6DAA1106], the “toxicity to normal cells compared with etoposide” value in data set [4] (Jurkat (low PBR expressing)) is listed as “less toxicity to normal cells than etoposide”. The “concentration at which cells effectively respond” value in data set [4] (Jurkat, three days) is on record as 10^−4 M. For the same compound, the “concentration at which cells were beginning to respond” value in data set [5] is recorded as 10^−4 M.
